Test results from patent US20240174637A1, “DEGRADERS OF GRK2 AND USES THEREOF” (Sonata Therapeutics, Inc., priority 2021, published 2024).
Read-outs that look alike come from different tables or passages of the source.

What was measured:
GRK2 [1] = biological target: T1, GRK2 (Homo sapiens, UniProt P25098); experiment: GRK2 Inhibition Assay (TR-FRET, Example 1); format: biochemical
T1 sequence (P25098 1-689): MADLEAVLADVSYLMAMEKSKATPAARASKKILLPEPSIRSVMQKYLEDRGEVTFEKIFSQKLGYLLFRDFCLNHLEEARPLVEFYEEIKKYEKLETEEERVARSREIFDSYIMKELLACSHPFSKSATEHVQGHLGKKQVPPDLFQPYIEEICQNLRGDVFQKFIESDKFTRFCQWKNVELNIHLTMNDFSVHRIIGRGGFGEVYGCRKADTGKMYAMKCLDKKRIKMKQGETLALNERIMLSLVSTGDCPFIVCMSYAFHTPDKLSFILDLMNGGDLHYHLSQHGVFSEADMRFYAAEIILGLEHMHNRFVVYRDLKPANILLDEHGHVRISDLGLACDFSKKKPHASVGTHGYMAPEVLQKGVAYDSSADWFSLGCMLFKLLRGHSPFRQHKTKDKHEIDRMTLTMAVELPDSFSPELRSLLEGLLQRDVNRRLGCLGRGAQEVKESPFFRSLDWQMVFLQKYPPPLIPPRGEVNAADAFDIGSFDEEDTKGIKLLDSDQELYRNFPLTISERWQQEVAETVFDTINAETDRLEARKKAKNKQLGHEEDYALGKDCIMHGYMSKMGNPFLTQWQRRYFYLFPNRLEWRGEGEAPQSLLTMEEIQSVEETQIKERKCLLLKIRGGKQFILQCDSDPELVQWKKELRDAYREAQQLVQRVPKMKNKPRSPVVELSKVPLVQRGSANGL
Experimental: Assay: GRK2 enzyme (1 nM final concentration) was diluted in 25 mM HEPES, 10 mM MgCl2, 2 mM DTT, 0.01% Tween-20, and 1 mM EGTA. Then the GRK2 mixture was added into ProxiPlate-384 white plate and pre-incubated for 30 min with test compounds at room temperature. ATP (7 μM final concentration) and Ulight TopoIIα (50 nM final concentration) were added into the assay plate to initiate the reaction and the mixture was incubated at room temperature for 90 min. Then, Eu anti-TopoIIα (0.12 nM final concentration), BSA (0.01% final concentration), and EDTA (11 mM final concentration) in LANCE assay buffer were added into each well. After 60 min incubation time at room temperature, TR-FRET signal was measured by EnVision plate reader.

PAXF1657 EV = experiment: 7-day cellular proliferation assay (CellTiter-Glo), PAXF1657 EV; format: cell-based
Outline: (§1)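 Read-out is CellTiter-Glo luminescence after 7 days of continuous exposure, with compound re-dosed in fresh medium at day 3. Cells were seeded at 500/well and treated across 30 μM-0.0002 μM (10 points, 0.3% DMSO); baseline viability plates were read at compound addition.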

PAXF1657 KO Clone #4 = experiment: 7-day cellular proliferation assay (CellTiter-Glo), PAXF1657 KO Clone #4; format: cell-based
Outline: as §1

GRK2 [2] = biological target: T1, GRK2; experiment: GRK2 Degradation Assay and Western Blot in PAXF1657 cells; format: cell-based; set-up: endogenous in cells; host or cells: PAXF1657
Outline: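 PAXF1657 cells grown to 70% confluency, then treated with compounds at 0–10 μM for 6 to 24 h at 37 °C. Lysates in PBS with 1% NP40 run on SDS-PAGE. GRK2 protein detected by western blot with β-actin as loading reference, using ECL chemiluminescence.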

[3] = Table 4, Example 1 assay, read-out: Enzymatic GRK2 IC50: Av IC50 GRK2
[4] = proliferation, read-out: GeoMean IC50 (UM) PAXF1657 EV
[5] = proliferation, read-out: GeoMean IC50 (uM) PAXF1657 KO Clone #4
[6] = Conc 0.3 uM, read-out: Degradation Assay - 3 point: Degradation (%)
[7] = Conc 1 uM, read-out: Degradation Assay - 3 point: Degradation (%)
[8] = Conc 3 uM, read-out: Degradation Assay - 3 point: Degradation (%)
[9] = TR-FRET, 7 μM ATP, read-out: Enzymatic GRK2 Assay: IC50 (nM) (Example 1)
[10] = 168 h, 7-day, read-out: 7-day proliferation assay: IC50 GeoMean (uM) [Cell Line: PAXF1657 EV]
[11] = 168 h, 7-day, read-out: 7-day proliferation assay: IC50 GeoMean (uM) [Cell Line: PAXF1657 KO Clone #4]
[12] = 0.3 uM, PAXF1657 EV, 24 hrs, read-out: % GRK2 degradation at 0.3 uM in PAXF1657 EV (24 hrs)
[13] = 1 uM, PAXF1657 EV, 24 hrs, read-out: % GRK2 degradation at 1 uM in PAXF1657 EV (24 hrs)
[14] = 3 uM, PAXF1657 EV, 24 hrs, read-out: % GRK2 degradation at 3 uM in PAXF1657 EV (24 hrs)

Compound | IC50 (GRK2 [1]; [3]) | inhibition at 0.3 µM (GRK2 [2]; [6]) | inhibition at 1 µM (GRK2 [2]; [7]) | inhibition at 3 µM (GRK2 [2]; [8]) | DC50 (GRK2 [2]; PAXF1657, 24 h, read-out: Degradation Assay - Full Dose Response: IC50 (uM) [cell line: PAXF1657, time point: 24 h]) | IC50 (GRK2 [1]; [9]) | inhibition at 0.3 µM (GRK2 [2]; [12]) | inhibition at 1 µM (GRK2 [2]; [13]) | inhibition at 3 µM (GRK2 [2]; [14]) | IC50 (PAXF1657 EV; [4]) | IC50 (PAXF1657 KO Clone #4; [5]) | IC50 (PAXF1657 EV; [10]) | IC50 (PAXF1657 KO Clone #4; [11])
Cn1c(CNc2cccc(C(=O)NCc3cccc(OCCCCCn4cc(CCCC(=O)Nc5cccc6c5CN(C5CCC(=O)NC5=O)C6=O)nn4)c3)c2)nnc1-c1ccncn1 (stereo not shown) [Compound D59] |  |  |  |  |  | < 100 nM | 33% | 18% | 53% |  |  | > 10 µM | > 10 µM
C[C@@H](NC(=O)c1cccc(NCc2nnc(-c3ccncn3)n2C)c1)c1cccc(OCCCCCCOCCOCCOCCCC(=O)Nc2cccc3c2CN(C2CCC(=O)NC2=O)C3=O)c1 (stereo partly drawn) [Compound D163, N-((1R)-1-(3-(6-(2-(2-(4-(2-(2,6-dioxopiperidin-3-yl)-1-oxoisoindolin-4-ylamino)-4-oxobutoxy)ethoxy)ethoxy)hexyloxy)phenyl)ethyl)-3-((4-methyl-5-(pyrimidin-4-yl)-4H-1,2,4-triazol-3-yl)methylamino)benzamide] | 16.6 nM | 74.4% | 81.5% | 89.6% |  |  |  |  |  | 0.37 µM | > 30 µM |  | 
Cc1ncsc1-c1ccc(CNC(=O)[C@@H]2C[C@@H](O)CN2C(=O)[C@@H](NC(=O)CCCCCOCCOCCOCCCCCCOc2cccc([C@H](C)NC(=O)c3cccc(NCc4nnc(-c5ccncn5)n4C)c3)c2)C(C)(C)C)cc1 [Compound D78, (2S,4R)-1-((S)-2-(tert-butyl)-22-(3-((S)-1-(3-(((4-methyl-5-(pyrimidin-4-yl)-4H-1,2,4-triazol-3-yl)methyl)amino)benzamido)ethyl)phenoxy)-4-oxo-10,13,16-trioxa-3-azadocosan-1-oyl)-4-hydroxy-N-(4-(4-methylthiazol-5-yl)benzyl)pyrrolidine-2-carboxamide] |  |  |  |  |  | < 100 nM | -12% | -21% | -18% |  |  | < 1 µM | 1 to 10 µM
C[C@@H](NC(=O)c1cccc(NCc2nnc(-c3ccncn3)n2C)c1)c1cccc(OCC(=O)N2CCN(c3ccc4c(c3)CN(C3CCC(=O)NC3=O)C4=O)CC2)c1 (stereo partly drawn) [Compound D176, N-((1R)-1-(3-(2-(4-(2-(2,6-dioxopiperidin-3-yl)-1-oxoisoindolin-5-yl)piperazin-1-yl)-2-oxoethoxy)phenyl)ethyl)-3-((4-methyl-5-(pyrimidin-4-yl)-4H-1,2,4-triazol-3-yl)methylamino)benzamide] | 24.1 nM | 33% | 24.4% | 10.7% |  |  |  |  |  | 8.02 µM | > 30 µM |  | 
C[C@@H](NC(=O)c1cccc(NCc2nnc(-c3ccncn3)n2C)c1)c1cccc(OCCCCCCOCCOCCOCCCC(=O)N2CCN(c3cc4c(cc3F)C(=O)N(C3CCC(=O)NC3=O)C4=O)CC2)c1 (stereo partly drawn) [Compound D178, N-((1R)-1-(3-((6-(2-(2-(4-(4-(2-(2,6-dioxopiperidin-3-yl)-6-fluoro-1,3-dioxoisoindolin-5-yl)piperazin-1-yl)-4-oxobutoxy)ethoxy)ethoxy)hexyl)oxy)phenyl)ethyl)-3-(((4-methyl-5-(pyrimidin-4-yl)-4H-1,2,4-triazol-3-yl)methyl)amino)benzamide] | 11.6 nM | 45% | 72% | 84% |  |  |  |  |  | 0.31 µM | > 30 µM |  | 

Now from value to compound, other results behind:

IC50 (GRK2 [1]; [3]) | inhibition at 0.3 µM (GRK2 [2]; [6]) | inhibition at 1 µM (GRK2 [2]; [7]) | inhibition at 3 µM (GRK2 [2]; [8]) | DC50 (GRK2 [2]; PAXF1657, 24 h, read-out: Degradation Assay - Full Dose Response: IC50 (uM) [cell line: PAXF1657, time point: 24 h]) | IC50 (GRK2 [1]; [9]) | inhibition at 0.3 µM (GRK2 [2]; [12]) | inhibition at 1 µM (GRK2 [2]; [13]) | inhibition at 3 µM (GRK2 [2]; [14]) | Compound | IC50 (PAXF1657 EV; [4]) | IC50 (PAXF1657 KO Clone #4; [5]) | IC50 (PAXF1657 EV; [10]) | IC50 (PAXF1657 KO Clone #4; [11])
13.6 nM | 86% | 92% | 95% | 0.23 µM |  |  |  |  | C[C@@H](NC(=O)c1cccc(NCc2nnc(-c3ccncn3)n2C)c1)c1cccc(OCCCCCCOCCOCC(=O)N2CCN(c3cc4c(cc3F)C(=O)N(C3CCC(=O)NC3=O)C4=O)CC2)c1 (stereo partly drawn) [Compound D139, N-((1R)-1-(3-(6-(2-(2-(4-(2-(2,6-dioxopiperidin-3-yl)-6-fluoro-1,3-dioxoisoindolin-5-yl)piperazin-1-yl)-2-oxoethoxy)ethoxy)hexyloxy)phenyl)ethyl)-3-((4-methyl-5-(pyrimidin-4-yl)-4H-1,2,4-triazol-3-yl)methylamino)benzamide] | 0.2 µM | 26.6 µM |  | 
16.7 nM | 82% | 86.5% | 94.6% |  |  |  |  |  | C[C@@H](NC(=O)c1cccc(NCc2nnc(-c3ccncn3)n2C)c1)c1cccc(OCCCCCOCCCOCC(=O)Nc2cccc3c2CN(C2CCC(=O)NC2=O)C3=O)c1 (stereo partly drawn) [Compound D183, N-((1R)-1-(3-((5-(3-(2-((2-(2,6-dioxopiperidin-3-yl)-1-oxoisoindolin-4-yl)amino)-2-oxoethoxy)propoxy)pentyl)oxy)phenyl)ethyl)-3-(((4-methyl-5-(pyrimidin-4-yl)-4H-1,2,4-triazol-3-yl)methyl)amino)benzamide] | 0.11 µM | > 30 µM |  | 
23.8 nM | 66.2% | 71.1% | 38.9% |  |  |  |  |  | C[C@@H](NC(=O)c1cccc(NCc2nnc(-c3ccncn3)n2C)c1)c1cccc(OCCCCCOCCCOCCNc2cccc3c2CN(C2CCC(=O)NC2=O)C3=O)c1 (stereo partly drawn) [Compound D196, N-((1R)-1-(3-(5-(3-(2-(2-(2,6-dioxopiperidin-3-yl)-1-oxoisoindolin-4-ylamino)ethoxy)propoxy)pentyloxy)phenyl)ethyl)-3-((4-methyl-5-(pyrimidin-4-yl)-4H-1,2,4-triazol-3-yl)methylamino)benzamide] | 0.36 µM | > 30 µM |  | 
9.05 nM | 57.7% | 82.4% | 86.7% |  |  |  |  |  | C[C@@H](NC(=O)c1cccc(NCc2nnc(-c3ccncn3)n2C)c1)c1cccc(OCCCCCCOCC(=O)N2CCN(c3cc4c(cc3F)C(=O)N(C3CCC(=O)NC3=O)C4=O)CC2)c1 (stereo partly drawn) [Compound D133, N-((1R)-1-(3-(6-(2-(4-(2-(2,6-dioxopiperidin-3-yl)-6-fluoro-1,3-dioxoisoindolin-5-yl)piperazin-1-yl)-2-oxoethoxy)hexyloxy)phenyl)ethyl)-3-((4-methyl-5-(pyrimidin-4-yl)-4H-1,2,4-triazol-3-yl)methylamino)benzamide] | 0.71 µM | > 30 µM |  | 
82.3 nM | -6.8% | 27.7% | 54.5% |  |  |  |  |  | Cn1c(CNc2cccc(C(=O)NCc3cc(OCCCCCOCCCOCC(=O)Nc4cccc5c4CN(C4CCC(=O)NC4=O)C5=O)ccc3F)c2)nnc1-c1ccncn1 (stereo not shown) [Compound D197, N-(5-(5-(3-(2-(2-(2,6-dioxopiperidin-3-yl)-1-oxoisoindolin-4-ylamino)-2-oxoethoxy)propoxy)pentyloxy)-2-fluorobenzyl)-3-((4-methyl-5-(pyrimidin-4-yl)-4H-1,2,4-triazol-3-yl)methylamino)benzamide] | 5.89 µM | > 30 µM |  | 
